Data taken from PubChem BioAssay (NCI).
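How tested: cells in 96-well plates exposed to compound for 48 hours at five concentrations. Abbreviation: GI50, concentration required for 50% inhibition of growth. TGI denotes the concentration required for complete inhibition of growth.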

How the values were obtained:
Test in all cases: inhibition of tumour cell growth, NCI panel, 48 h
A549 NSCLC = test system: A549 NSCLC
HOP-62 NSCLC = test system: HOP-62 NSCLC
HS 578T breast = test system: HS 578T breast
NCI/ADR-RES ovarian = test system: NCI/ADR-RES ovarian
RXF 393 renal = test system: RXF 393 renal
SF-295 CNS = test system: SF-295 CNS
SF-539 CNS = test system: SF-539 CNS
SK-MEL-5 melanoma = test system: SK-MEL-5 melanoma
U251 CNS = test system: U251 CNS
BT-549 breast = test system: BT-549 breast

| Compound | TGI (A549 NSCLC) | TGI (HOP-62 NSCLC) | TGI (HS 578T breast) | TGI (NCI/ADR-RES ovarian) | TGI (RXF 393 renal) | TGI (SF-295 CNS) | TGI (SF-539 CNS) | TGI (SK-MEL-5 melanoma) | TGI (U251 CNS) | TGI (BT-549 breast) | GI50 (BT-549 breast) | GI50 (HOP-62 NSCLC) | GI50 (HS 578T breast) | GI50 (SF-295 CNS) |
| --- | --- | --- | --- | --- | --- | --- | --- | --- | --- | --- | --- | --- | --- | --- |
| CC(=O)Nc1c(C(=N)C#N)ncn1CCO | > 100 µM | > 100 µM | > 100 µM | > 100 µM | > 100 µM | > 100 µM | > 100 µM | > 100 µM | > 100 µM |  |  |  |  |  |
| CN1CCCOC(c2ccc(Cl)cc2)O1 (stereo unspecified) | > 100 µM | > 100 µM |  | > 100 µM | > 100 µM | > 100 µM | > 100 µM | > 100 µM | > 100 µM | > 100 µM |  |  |  |  |
| CCOC(=O)CCC1(CCC(=O)OCC)CCCCCCCCC(CCC(=O)OCC)(CCC(=O)OCC)C(=O)C1=O | > 100 µM | > 100 µM | > 100 µM | > 100 µM |  | > 100 µM | > 100 µM | > 100 µM | > 100 µM |  |  |  |  |  |
| COc1ccc(/C(Cl)=C(\C#N)c2ccc(OC)c(OC)c2)cc1OC | > 100 µM | > 100 µM |  |  | > 100 µM | > 100 µM | > 100 µM | > 100 µM | > 100 µM | > 100 µM |  |  |  |  |
| CC1(C)OP(=O)(O)C=C1Sc1ccc([N+](=O)[O-])cc1[N+](=O)[O-] | > 100 µM | > 100 µM | > 100 µM | > 100 µM |  | > 100 µM | > 100 µM | > 100 µM | > 100 µM |  |  |  |  |  |
| Cc1ccc2c(c1)CC1(Cc3cccc(C)c3C1=O)C2=O (stereo unspecified) | > 100 µM | > 100 µM | > 100 µM | > 100 µM | > 100 µM | > 100 µM | > 100 µM | > 100 µM | > 100 µM |  |  |  |  |  |
| O=C(NCCN1CCOCC1)c1ccc(I)cc1 | > 100 µM |  | > 100 µM | > 100 µM |  |  | > 100 µM | > 100 µM | > 100 µM | > 100 µM |  |  |  |  |
| CCOP(=O)(OCC)/C(C#N)=C/c1ccc(-c2cc(C(F)(F)F)cc(C(F)(F)F)c2)o1 | 31.3 µM | 29.1 µM | > 100 µM | 23.6 µM |  | 11.8 µM | 35.3 µM |  | 24.4 µM | 44.9 µM |  |  |  |  |
| CC1CC(Nc2ccc(Br)cc2)N(C(=O)c2ccc(Br)cc2)O1 (stereo unspecified) | > 10 µM | > 10 µM | > 10 µM | > 10 µM | > 10 µM | > 10 µM | > 10 µM | > 10 µM |  | > 10 µM |  |  |  |  |
| COc1ccc(C2(CC(C)C)CCN(S(=O)(=O)c3ccc(C)cc3)C2)cc1OC (stereo unspecified) | > 100 µM | > 100 µM |  | 70.5 µM | > 100 µM | > 100 µM | > 100 µM | 32.6 µM | > 100 µM | > 100 µM |  |  |  |  |
| COc1ccc(C2COc3c(ccc(O)c3C)C2)cc1OC (stereo unspecified) | > 167 µM | > 200 µM |  | > 200 µM | 131 µM | > 176 µM | 197 µM | 24.6 µM | > 200 µM |  |  |  |  |  |
| Cc1cc(C)nc(NC(P(=O)(O)O)P(=O)(O)O)n1 | > 100 µM | > 100 µM | > 100 µM | > 100 µM | > 100 µM | > 100 µM | > 100 µM | > 100 µM |  | > 100 µM |  |  |  |  |
| Cc1ccc(C(=O)NCc2ccccc2)cc1N=NN(C)C | > 100 µM | > 100 µM | > 100 µM | > 100 µM |  | > 100 µM | > 100 µM | > 100 µM | > 100 µM | > 100 µM |  |  |  |  |
| COc1ccc2nc(-c3ccccc3)c(=O)[nH]c2c1 | > 100 µM | > 100 µM | > 100 µM | > 100 µM | > 100 µM | > 100 µM | > 100 µM | > 100 µM |  | > 100 µM |  |  |  |  |
| CN1CCN(/C(N)=C(\C#N)C(=O)Nc2ccc(Cl)cc2)CC1 | > 100 µM | > 100 µM |  | > 100 µM |  | > 100 µM | > 100 µM | > 100 µM | > 100 µM | > 100 µM |  |  |  |  |
| O=c1cc(CF)[nH]c(=S)[nH]1 | > 100 µM | > 100 µM | > 100 µM | > 100 µM | > 100 µM | > 100 µM |  | > 100 µM | > 100 µM | > 100 µM |  |  |  |  |
| O=c1[nH]nc(Cc2ccc(Cl)cc2)n1/N=C/c1cccs1 | > 100 µM | 55.2 µM |  | > 100 µM | 32.7 µM | 44 µM | > 100 µM |  | > 100 µM | 66.5 µM |  |  |  |  |
| CC1(C)O[C@H]2OC(CO)C(N=[N+]=[N-])[C@H]2O1 (stereo partly specified) | > 100 µM | > 100 µM | > 100 µM | > 100 µM |  | > 100 µM | > 100 µM | > 100 µM | > 100 µM |  |  |  |  |  |
| COCn1cnc2c(=O)nc(SC)n(-c3ccccc3)c21 | > 100 µM | > 100 µM | > 100 µM | > 100 µM | > 100 µM | > 100 µM | > 100 µM | > 100 µM |  | > 100 µM |  |  |  |  |
| CC(NC(=O)Cc1ccccc1)NC(=O)C(C)C(=O)NCc1ccccc1 (stereo unspecified) | > 100 µM |  | 83.3 µM | > 100 µM | > 100 µM | > 100 µM | > 100 µM | > 100 µM | > 100 µM | 75 µM |  |  |  |  |
| C(=Nc1ccc2c(c1)Cc1ccccc1-2)c1ccccn1 | > 100 µM | > 100 µM | > 100 µM | > 100 µM | > 100 µM | > 100 µM |  | > 100 µM | > 100 µM | > 100 µM |  |  |  |  |
| COc1ccc2c(c1)c(-c1nc(-c3c[nH]c4ncccc34)cs1)cn2CCCCN1CCCCC1 |  | 2.95 µM | 4.38 µM |  |  | 3.02 µM |  |  |  | 3.13 µM | 1.66 µM | 1.48 µM | 1.66 µM | 1.6 µM |
| O=C1OCC2OC(=O)c3cc(O)c(O)c(O)c3-c3c(O)c(O)c(O)c4c3C(=O)OC(C2OC(=O)c2cc(O)c(O)c(O)c2-c2c1cc(O)c(O)c2O)C1OC(=O)C2C4=C(O)C(=O)C23Oc2cc(O)c4c(c2[C@H]13)O[C@H](c1ccc(O)c(O)c1)[C@@H](O)C4 (stereo partly specified) | > 100 µM | > 100 µM | > 100 µM | 73.3 µM | 34.9 µM | 53.5 µM |  | 33.8 µM | 42.7 µM | 83.3 µM |  |  |  |  |
